Results published in paper PMC9610434, “Discovery of 2′,6-Bis(4-hydroxybenzyl)-2-acetylcyclohexanone, a Novel FtsZ Inhibitor” (Molecules, 2022).
Read-outs that look alike come from different tables or passages of the source.

Key:
[1] = molecular target: T1, S. pneumoniae FtsZ (SpnFtsZ) (Streptococcus pneumoniae, UniProt A0A0H2ZNE0); settings: cited from earlier work
Bacillus subtilis 168 [2] = system: Bacillus subtilis 168; design: method as in PMID 28002947; settings: cited from earlier work
Bacillus subtilis 168 [3] = experiment: Growth inhibition / MIC by agar dilution, Bacillus subtilis 168; format: cell-based
Experimental: (§1) The Minimum Inhibitory Concentration (MIC) was determined as described previously, following the agar dilution method. From an overnight culture of Bacillus subtilis 168 (Bs 168), 2% inoculation was performed to a fresh tube containing Luria Broth. When the bacteria reached an O.D600 = 0.4, the culture was serially diluted to a dilution factor of 10^4. Then, 20 μL of the diluted culture was spotted on plates containing different concentrations of 3 (0, 1, 3, 5, 7, 9, 10, 11, 12, 13 μM) and incubated, at 37 °C, for […], after which the colonies were counted. Similar procedure was performed for Streptococcus pneumoniae TIGR4. Bacteria were grown in Todd–Hewitt Yeast Broth up to 0.4 OD600 and serially diluted. Upon addition on to BHI agar plates containing different concentrations of 3 (0.5, 1, 1.5, 2, 3, 5, 7, 10 μM), the colonies were incubated for 24 h, at 37 °C, with 5% CO2. […] IC50 was determined by plotting percentage inhibition versus log of concentration of drug, using GraphPad Prism 7 software.

tubulin = experiment: Tubulin polymerization assay; format: biochemical, goat; settings: 13 μM tubulin, light scattering at 350 nm
Experimental: Streptococcus pneumoniae FtsZ (SpnFtsZ) and Bacillus subtilis FtsZ (BsFtsZ) were purified as described previously. Tubulin from goat brain was purified as described previously. The concentration of all the proteins was estimated using Bradford’s reagent.
Tubulin polymerization was performed as described previously. Purified tubulin (13 μM) in PEM buffer (50 mM PIPES pH 6.8, 3 mM MgCl2 and 1 mM EGTA) + 10% DMSO was incubated with 3 for 10 min on ice. Then, 1 mM GTP was added to the mixture, and polymerization was monitored by light scattering in SoftMax Spectra Multi Plate reader for 30 min, at 37 °C. The excitation and emission wavelengths were set to 350 nm.

SpnFtsZ [4] = experiment: Atomic force microscopy of SpnFtsZ filaments; format: biochemical, Streptococcus pneumoniae; settings: 10 μM compound, 4 μM SpnFtsZ; control filaments 9.02 ± 5.2 nm
Experimental: Then, 4 μM SpnFtsZ in PKM buffer was incubated with or without 10 μM 3, for 20 min, at 25 °C. Upon addition of 1 mM GTP, FtsZ was polymerized for 300 s, at 37 °C. AFM samples were prepared according to a previously described method. Then, 20 μL of each sample was added onto the mica sheet and allowed to absorb on it for 15 min. The sheet was then washed with MilliQ and allowed to dry overnight. The samples were imaged the next day using MFP-3D BIO, Asylum Research USA.

membrane of Bs 168 cells = experiment: Membrane staining of live cells with FM 4-64; format: cell-based, Bacillus subtilis; settings: Bs 168, 8 μM, 10 min
Experimental: Membrane staining of live Bs 168 cells was performed using FM 4–64 stain [28]. Bs 168 cells were grown as described above and treated with 8 μM 3 or equivalent volume of DMSO for 10 min. Cells were pelleted down and resuspended in PBS containing 10 μg/mL FM-4–64 dye. After incubation for another 10 min under shaking conditions in the dark, the cells were washed with PBS to remove excess dye. The cells were then mounted on the slide pre-coated with poly-L-lysine and covered with a coverslip. Images were captured in Confocal Laser Scanning Microscope—Carl Zeiss, LSM 780.

SpnFtsZ [5] = experiment: Transmission electron microscopy of SpnFtsZ filaments; format: biochemical, Streptococcus pneumoniae; settings: 10 μM compound
Experimental: SpnFtsZ (10 μM) in PKM buffer was incubated without and with 10 μM 3 for 20 min, at 25 °C. The mixture was then polymerized by the addition of 1 mM GTP for 200 s, at 37 °C. Samples for EM were prepared on a fresh carbon–formvar-coated copper EM grid according to a previously described method. Imaging was performed the next day using JEOL JEM 1220 HRTEM (200 kV). ImageJ software was used to determine the length of the FtsZ filaments.

SpnFtsZ [6] = experiment: FtsZ polymerization by light scattering at 400 nm; format: biochemical, Streptococcus pneumoniae; settings: 10 μM SpnFtsZ, 1 mM GTP, increasing concentration
Experimental: SpnFtsZ (10 μM) in 50 mM PIPES pH 7.4, 50 mM KCl and 5 mM MgCl2 (PKM) buffer was incubated with different concentrations of 3 (0, 1, 2, 3, 5, 6, 7) for 20 min, at 25 °C. After the addition of 1 mM GTP, the polymerization was monitored for 600 s, at 37 °C, using light scattering at 400 nm in a JASCO FP-8300 spectrofluorometer.

[7] = molecular target: T2, FtsZ from Bacillus subtilis (BsFtsZ) (Bacillus subtilis, UniProt P17865); experiment: Transmission electron microscopy of BsFtsZ filaments; format: biochemical; settings: 20 μM compound, 5 μM BsFtsZ
T2 construct: made in house
T2 sequence (P17865 whole entry): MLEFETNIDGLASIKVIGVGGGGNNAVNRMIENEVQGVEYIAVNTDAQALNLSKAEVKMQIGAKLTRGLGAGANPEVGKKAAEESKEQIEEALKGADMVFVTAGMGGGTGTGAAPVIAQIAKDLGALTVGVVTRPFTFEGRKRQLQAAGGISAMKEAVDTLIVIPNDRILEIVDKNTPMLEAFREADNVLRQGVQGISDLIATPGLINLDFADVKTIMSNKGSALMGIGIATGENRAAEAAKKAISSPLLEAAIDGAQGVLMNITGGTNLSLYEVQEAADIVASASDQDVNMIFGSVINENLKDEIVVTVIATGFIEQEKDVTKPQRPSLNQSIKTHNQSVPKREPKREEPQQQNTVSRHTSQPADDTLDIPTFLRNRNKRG
Experimental: In another experiment, BsFtsZ (5 μM) in PKM buffer was incubated without and with 20 μM 3 for 20 min, at 25 °C. The mixture was then polymerized by the addition of 1 mM GTP for 600 s, at 37 °C. Samples for imaging were prepared using the same procedure described above.

SpnFtsZ [8] = experiment: FtsZ sedimentation assay; format: biochemical, Streptococcus pneumoniae; settings: 10 μM compound, 10 μM SpnFtsZ, p = 0.02
Experimental: SpnFtsZ (10 μM) in PKM buffer was incubated with different concentrations of 3 (0.5, 1, 3, 6, 10) for 20 min at 25 °C. The reaction mixture was allowed to polymerize by adding 1 mM GTP and incubated for 600 s, at 37 °C. The mixture was then subjected to ultra-centrifugation at 60,000 RPM for 30 min at 30 °C. The supernatant was collected and quantified using Bradford’s reagent. The amount of FtsZ present in the pellet was assessed by subtracting the supernatant concentration from the total protein [30].

Z-ring in Sp TIGR4 = experiment: Immunostaining for Z-ring and nucleoid, Sp TIGR4; format: cell-based, Streptococcus pneumoniae; settings: Sp TIGR4, 2 μM, 1 h
Experimental: (§2) Immunostaining of Bs 168 cells was performed as described previously. Briefly, from an overnight culture of Bs 168, 2% inoculation was performed to a fresh tube containing Luria Broth. When the bacteria reached an O.D600 = 0.4, the culture was divided into two fractions. To one fraction, 8 μM 3 was added, and to another, an equal volume of DMSO. The cells were incubated at 37 °C under shaking conditions for 10 min. Cells were then fixed for 30 min with 2.8% formaldehyde and 0.04% glutaraldehyde. Cells were permeabilized using 0.1% Triton X-100 and then treated with 1 mg/mL lysozyme and 5 mM EDTA for 45 min. Treatment with 0.5% BSA for 30 min was performed to block non-specific binding sites. Then, 1 h treatment each with primary antibody, anti-FtsZ antibody raised in rabbit (1:50 dilution) and secondary antibody (1:400), Alexa Fluor^TM 594 goat anti-rabbit IgG (H+L) was performed. Nucleoid staining was performed with 1 µg/mL 4′-6-diamidino-2-phenylindole (DAPI) for 20 min. Images were captured using Confocal Laser Scanning Microscope—Carl Zeiss, LSM 780. Similar procedure was followed for Sp TIGR4, which was treated with 2 μM 3 for 1 h before following the above immunostaining procedure.

[9] = system: Streptococcus pneumoniae TIGR4; experiment: Growth inhibition / MIC by agar dilution, Streptococcus pneumoniae TIGR4; format: cell-based; settings: for MIC: Streptococcus pneumoniae
Experimental: as §1

alkaline phosphatase = experiment: Alkaline phosphatase activity assay; format: biochemical; settings: 5, 10 and 20 μM, PNPP substrate
Experimental: Alkaline phosphatase assay was performed as described previously. Then, 2 U/mL Alkaline Phosphatase enzyme in glycine NaOH buffer, pH 10.4 with 100 mM glycine, 1 mM MgCl2, and 0.1 mM ZnCl2 was incubated with different concentrations (5, 10, and 20 μM) of 3 for 10 min on ice. Immediately after the addition of 250 μM para-4-nitrophenyl phosphate (PNPP), the absorbance at 410 nm was measured for 700 s in a JASCO V-730 spectrophotometer.

Z-ring in Bs 168 cells = experiment: Immunostaining for Z-ring and nucleoid, Bs 168; format: cell-based, Bacillus subtilis; settings: Bs 168, 8 μM, 10 min
Experimental: as §2

[10] = Cytotoxicity testing in mouse skin L929 cells; format: cell-based; settings: read-out: GI50 (concentration for 50% cell growth inhibition)
[11] = molecular target: T1, S. pneumoniae FtsZ (SpnFtsZ); experiment: Binding to SpnFtsZ by tryptophan fluorescence
Experimental: The binding of 3 to SpnFtsZ was assessed using tryptophan fluorescence. The decrease in the fluorescence intensity of SpnFtsZ in the presence of 3 was measured. Then, 2 μM of SpnFtsZ in 50 mM PIPES pH 7.4, 50 mM KCl, was incubated with different concentrations of 3 (0.2, 0.5, 1, 1.5, 2, 3, 4, 5, 7, 10), at 25 °C, for 10 min. The fluorescence spectra were measured at an emission range of 310 nm to 410 nm, after excitation at 295 nm in JASCO FP-8300 spectrofluorometer. Due to the absorbance of 3 at 340 nm, inner filter correction was performed using the below equation:(1) Fcorrected=Fobserved∗antilog ODex+ODem/2
The binding constant, Kd, was determined using the following equation:(2) ∆F=∆Fmax×L/Kd+L
ΔF is the change in the fluorescence intensity of SpnFtsZ, ΔFmax is the maximal change in the fluorescence of SpnFtsZ when the receptor site is fully occupied, and [L] is the concentration of 3.

[12] = system: S. pneumoniae TIGR4 cells; experiment: Scanning electron microscopy of cell morphology; format: cell-based, Streptococcus pneumoniae; settings: Sp TIGR4, 2 μM, 1 h, SEM
Experimental: Sp TIGR4 was grown as described above and treated with 2 μM 3 or equivalent volume of DMSO for 1 h. The cells were then fixed with 2.8% formaldehyde and 0.04% glutaraldehyde and resuspended in PBS as described earlier. A small volume (5 μL) was spotted on an aluminium foil and allowed to air dry completely. Images were captured using Field Emission Gun-Scanning Electron Microscope (FEG-SEM) JSM-7600F.

S. pneumoniae = system: S. pneumoniae; design: method as in PMID 18801997; settings: cited from earlier work

T1 sequence (A0A0H2ZNE0 whole entry): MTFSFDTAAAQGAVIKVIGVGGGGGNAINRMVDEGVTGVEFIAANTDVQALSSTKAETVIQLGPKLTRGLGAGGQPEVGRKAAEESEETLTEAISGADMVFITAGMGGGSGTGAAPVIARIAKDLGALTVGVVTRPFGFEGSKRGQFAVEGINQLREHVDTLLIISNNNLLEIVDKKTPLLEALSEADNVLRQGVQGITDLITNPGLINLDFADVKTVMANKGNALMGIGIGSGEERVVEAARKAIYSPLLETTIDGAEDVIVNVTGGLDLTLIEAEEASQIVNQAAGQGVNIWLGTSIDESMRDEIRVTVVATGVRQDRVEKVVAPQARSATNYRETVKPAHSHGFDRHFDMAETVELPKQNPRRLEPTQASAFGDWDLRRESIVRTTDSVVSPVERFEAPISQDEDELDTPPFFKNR

O=C(/C=C/c1ccc(O)cc1)C1CCC/C(=C\c2ccc(O)cc2)C1=O (centres unmarked) [Compound 1]
Kd [1]: 4 ± 1.1 µM
melting point: 225 to 227 °C
IC50 (Bacillus subtilis 168 [2]; Bs168): 1.2 ± 0.5 µM
MIC (Bacillus subtilis 168 [2]; Bs168 cells): 2.0 to 4.0 µg/mL

O=C(CCc1ccc(O)cc1)c1cccc(Cc2ccc(O)cc2)c1O [Compound 2, 1-{2-Hydroxy-3-(4-hydroxybenzyl)phenyl}-3-(4-hydroxyphenyl)propan-1-one]
inhibition at 15 µM (Bacillus subtilis 168 [3]; Bacillus subtilis, 168, treatment with 15 µM, read-out: inhibition of growth of B. subtilis (Bs168)): 21.5 ± 0.5%

O=C(CCc1ccc(O)cc1)[C@@H]1CCC[C@H](Cc2ccc(O)cc2)C1=O [Compound 3, 2-(4-Hydroxybenzyl)-6-{3-(4-hydroxyphenyl)propanoyl}cyclohexan-1-one]
inhibition of tubulin polymerization (tubulin): no significant inhibition
average height of FtsZ aggregates (AFM) (SpnFtsZ [4]): 233.2 ± 151.2 nm
effect on cell membrane (membrane of Bs 168 cells): remains intact
FtsZ aggregation (TEM) (SpnFtsZ [5]; 10 μM SpnFtsZ): large aggregates were seen throughout the grid
length of FtsZ filaments (TEM) (SpnFtsZ [5]; control 2.1 ± 1.2 μm): 0.7 ± 0.6 μm
effect on FtsZ polymerization (light scattering) (SpnFtsZ [6]): inhibits FtsZ polymerization
BsFtsZ aggregation (TEM) [7]: large aggregates of BsFtsZ
MIC (Bacillus subtilis 168 [3]; Bacillus subtilis, 168, 6 h, Bs168, agar dilution, 6 h, 37 °C, read-out: MIC): 11 µM
MIC (Bacillus subtilis 168 [3]; Bacillus subtilis, 168, Bs168 cells, converted from µM, read-out: MIC (equivalent)): ≤ 3.5 µg/mL
IC50 (Bacillus subtilis 168 [3]; Bacillus subtilis, 168, Bs168, inhibition of proliferation): 4.97 ± 0.01 µM
reduction of FtsZ pellet compared to control (SpnFtsZ [8]): 17%
effect on nucleoid separation (Z-ring in Sp TIGR4; DAPI): no effect on the nucleoid separation
percentage of cells without a Z-ring (Z-ring in Sp TIGR4; control 50%): 73%
IC50 ([9]; Streptococcus pneumoniae TIGR4, inhibition of proliferation): 1 ± 0.01 µM
MIC ([9]; TIGR4, 24 h, Streptococcus pneumoniae TIGR4, agar dilution, 24 h, read-out: MIC): 2 µM
MIC ([9]; TIGR4, S. pneumoniae, converted from µM, read-out: MIC (equivalent)): ≤ 0.7 µg/mL
inhibition of alkaline phosphatase activity (alkaline phosphatase): no detectable inhibitory activity
effect on nucleoid separation (Z-ring in Bs 168 cells; DAPI): no effect on the nucleoid separation
dividing cells with a prominent Z-ring (Z-ring in Bs 168 cells; control 35 ± 17%): 3 ± 3%
GI50 [10]: 7 ± 2.35 µM
Kd [11]: 2.2 ± 0.3 µM
effect on cell morphology and membrane [12]: no changes in the morphology

NC(=O)c1c(F)ccc(OCc2nc3cc(Cl)cnc3s2)c1F [PC190723 4, PC190723]
MIC (S. pneumoniae): more than 64 µg/mL
MIC (S. pneumoniae; converted from µg/mL): > 180 µM
